In assay [1] the test system is transgenic mice expressing the longest human tau protein isoform. The assay is described as follows: RotaRod test in transgenic mice expressing the longest human tau protein isoform. Format: in vivo, mouse. To be noted: subcutaneous implant releasing 0.38 mg of steroid per day for 90 days. From the text:
FIG. 8: Effect of molecule 43B on the motor incoordination of transgenic mice expressing the longest isoform of human tau protein in their neurons. […] The maximum speed of rotation of the RotaRod drum before the […] falls is a measurement of motor coordination (higher values correspond to a better treatment effect).
In order to evaluate the therapeutic potential of 43B to treat Alzheimer-type neurodegenerative diseases, a homozygous transgenic line of mice, such as described by Götz (EMBO J. 1995; 14(7):1304-13), can be used.
These mice express the longest human tau protein isoform. They present symptoms of neurological dysfunction expressed as muscular weakness and a reduction in motor coordination which correlate histologically with the appearance of abnormal neurites and hyperphosphorylated tau proteins as is seen in Alzheimer's disease. This pathological phosphorylation decreases the affinity of tau for microtubules and favors its aggregation.
A breeding program was undertaken at Bicêtre and genotyping made it possible to select mice homozygous for the transgene. […] These implants released 0.38 mg of steroid per day for 90 days. The progression of motor incoordination was followed by repeated RotaRod tests.
(In general: Falling from the rotarod earlier than controls is read as motor impairment.)

Assay [2] concerns the target Mineralocorticoid Receptor (MR) (Rattus norvegicus, UniProt P22199). The assay is described as follows: Radioligand binding assay, MR. Conditions: MAP4343 10 μM; 4.5 nM [^3H] D-Aldosterone; Wistar Rat kidney. The protocol: (§1) Binding affinity of 3-methoxy-PREG (MAP4343) for receptors of steroid hormones was evaluated using radioligand binding assays.
The target in another assay is ERβ (Homo sapiens, UniProt Q92731). The assay is described as follows: Radioligand binding assay, ERβ. To be noted: MAP4343 10 μM; 0.5 nM [^3H] Estradiol; Human recombinant Sf9 cells. The protocol: as §1
For another assay, the system named is CCI traumatized animals. The assay is described as follows: Water Exploration Test (WET) after Controlled Cortical Impact (CCI). Format: in vivo, rat. Also on record: key to Time spent in CZ, Conclusion vs. CCI-D0: ↓ ↓ ↓: decrease of analyzed variable with p < 0.001; ?: stability of analyzed variable; ↑: increase in analyzed variable with p < 0.05; key to Entry number in CZ, Conclusion vs. CCI-D0: ↓: decrease of analyzed variable with p < 0.05; ?: stability of analyzed variable; ↑ ↑: increase in analyzed variable with p < 0.01. Conditions: for Entry number in CZ, Mean / Time spent in CZ, Mean: C-D0 = 100. The method, then:
Male Sprague-Dawley rats of […] are used. There were 12 animals per group for all in vivo experiments (WET, MRI) except for the CHI injury which requested 17 animals per group because of the post-trauma mortality rate. Each group was then split in two subgroups of 6 individuals for all post-mortem analysis (biochemical, histological and immunohistological analysis.
CCI was performed with an electromagnetic impact device as described (MyNeurolab, St. Louis, Mo.; Brody et al. 2007). Anesthesized rats were subjected to a single right lateral CCI, with the following parameters: impact centered 4.0 mm anterior to lambda and 4.5 mm […] of midline, within the craniotomy of the animal. The impact was set at a velocity of 4 m/s with a sustained depression of 200 ms, using a 5.0 mm tip.
The […] is a rat, the more time it will spend “floating” (null velocity) in the central zone (see Fares-2009).
More precisely, a circular tank (180 cm diameter, 60 cm high) is filled with water maintained at 27° C. to a depth of 40 cm. The water is made opaque by adding black gouache, allowing the VideoTrack system (ViewPoint) to detect the white-coloured rat. This tank is divided into 4 identical quadrants (6,358 cm2 each) using two 180 cm long opaque plastic separators. In each quadrant, one rat is introduced with its head facing the corner between the separator and the tank's wall. It is noteworthy to emphasize that 4 rats can be tested simultaneously using the 4 quadrants. Using the VideoTrack system, we draw two virtual areas: a large one delineates the whole quadrant in which the rat is placed, the so-called Full Quadrant (FQ) and a small one that delineates a central zone (CZ). The CZ, having the same shape as the FQ, measures 2,921 cm2, and is considered to be anxiogenic for animals. Thus, the distance, the number of entries, the time spent, and the velocity profile in the CZ are measured to assess anxiety-like behaviour. In addition, the total distance traveled in the FQ represents an indicator of motor activity. The duration of each trial is 5 minutes.
The effect of 3-methoxy-PREG (MAP4343) on anxiety induced by trauma was analyzed using the WET test.

The mark [3] stands for this setting: Day 7, CCI-D1, 10 mg/kg from 24 hours post-trauma.
Where [4] appears, read: Day 7, CCI-D2, 20 mg/kg from 24 hours post-trauma.
Setting [5] is: Day 27, CCI-D1, 10 mg/kg from 24 hours post-trauma.
Setting [6] is: Day 27, CCI-D2, 20 mg/kg from 24 hours post-trauma.

Where only a bound is given, the exact number is not on record here.

Chain of Mineralocorticoid Receptor (MR) (P22199 whole entry): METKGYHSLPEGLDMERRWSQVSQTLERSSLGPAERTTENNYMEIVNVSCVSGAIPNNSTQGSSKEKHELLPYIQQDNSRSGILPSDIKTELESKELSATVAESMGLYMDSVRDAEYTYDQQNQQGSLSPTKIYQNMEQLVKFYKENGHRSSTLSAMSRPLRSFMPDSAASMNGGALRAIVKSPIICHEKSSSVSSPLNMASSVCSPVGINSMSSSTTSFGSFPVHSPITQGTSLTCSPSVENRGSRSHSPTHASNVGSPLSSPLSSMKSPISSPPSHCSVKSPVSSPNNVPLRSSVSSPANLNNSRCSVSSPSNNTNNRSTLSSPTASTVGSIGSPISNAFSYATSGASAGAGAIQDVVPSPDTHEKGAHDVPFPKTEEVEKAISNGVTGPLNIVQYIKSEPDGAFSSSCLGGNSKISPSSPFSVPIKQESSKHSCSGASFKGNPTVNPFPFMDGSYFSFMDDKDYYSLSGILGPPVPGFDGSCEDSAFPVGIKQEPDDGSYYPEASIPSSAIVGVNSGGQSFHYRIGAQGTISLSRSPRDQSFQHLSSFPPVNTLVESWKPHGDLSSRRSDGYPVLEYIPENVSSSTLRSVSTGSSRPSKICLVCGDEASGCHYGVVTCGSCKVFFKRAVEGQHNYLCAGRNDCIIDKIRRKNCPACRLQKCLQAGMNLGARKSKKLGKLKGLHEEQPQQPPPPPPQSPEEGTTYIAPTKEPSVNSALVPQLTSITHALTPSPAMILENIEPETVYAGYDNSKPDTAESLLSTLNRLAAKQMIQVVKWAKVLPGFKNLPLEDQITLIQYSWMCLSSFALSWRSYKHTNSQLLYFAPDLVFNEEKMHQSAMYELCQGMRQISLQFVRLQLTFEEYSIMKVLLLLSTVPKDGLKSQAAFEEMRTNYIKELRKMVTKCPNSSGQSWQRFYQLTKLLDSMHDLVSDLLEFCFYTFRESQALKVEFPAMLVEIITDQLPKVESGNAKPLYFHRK
Chain of ERβ (Q92731 whole entry): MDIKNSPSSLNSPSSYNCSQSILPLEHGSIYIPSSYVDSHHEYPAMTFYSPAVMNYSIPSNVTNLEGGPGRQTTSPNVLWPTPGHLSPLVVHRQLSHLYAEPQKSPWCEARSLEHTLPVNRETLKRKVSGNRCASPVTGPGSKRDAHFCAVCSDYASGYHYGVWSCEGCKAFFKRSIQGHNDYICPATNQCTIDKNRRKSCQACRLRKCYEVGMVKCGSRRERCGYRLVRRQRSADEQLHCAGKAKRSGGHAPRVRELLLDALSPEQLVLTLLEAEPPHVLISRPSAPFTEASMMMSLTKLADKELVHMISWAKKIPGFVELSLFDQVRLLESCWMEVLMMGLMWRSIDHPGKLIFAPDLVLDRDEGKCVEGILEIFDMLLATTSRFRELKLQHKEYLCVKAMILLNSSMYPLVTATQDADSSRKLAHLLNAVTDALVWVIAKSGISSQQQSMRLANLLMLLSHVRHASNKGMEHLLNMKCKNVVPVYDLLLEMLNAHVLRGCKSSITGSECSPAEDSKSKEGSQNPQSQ

As for `CO[C@H]1CC[C@@]2(C)C(=CC[C@H]3[C@@H]4CC[C@H](C(C)=O)[C@@]4(C)CC[C@@H]32)C1` [3-methoxy-PREG, 3β-methoxy-pregna-5-ene-20-one], the “motor dysfunction (RotaRod)” value in assay [1] is on record as “beneficial effect on motor dysfunction”. In addition, the “% inhibition of specific binding” value (in assay [2]; on ERβ) was < 25% throughout. The “Entry number in CZ, Mean” value in the assay on CCI traumatized animals (setting [3]) was 64; in the assay on CCI traumatized animals (setting [4]) it was 73; in the assay on CCI traumatized animals (setting [5]) it was 79; with CCI traumatized animals (setting [6]), 114. Further, the “Time spent in CZ, Mean” value in the assay on CCI traumatized animals (setting [3]) is 48; in the assay on CCI traumatized animals (setting [4]), 66; in the assay with CCI traumatized animals (setting [5]), 86; in the assay with CCI traumatized animals (setting [6]), 95. Also, the “Time spent in CZ, Conclusion vs. CCI-D0” value with CCI traumatized animals (Day 7, CCI-D2, 20 mg/kg) is “↑”; in the assay on CCI traumatized animals (Day 27, CCI-D2, 20 mg/kg), “↑”. Besides, in the assay with CCI traumatized animals (Day 27, CCI-D2, 20 mg/kg), the “Entry number in CZ, Conclusion vs. CCI-D0” value is “↑ ↑”. In addition, the “anxiety induced by CCI trauma” value with CCI traumatized animals (as early as day 7, in particular at 20 mg/kg (D2)) is listed as “alleviated”.

The values above are taken from US20140045807A2, “THE USE OF 3-METHOXY-PREGNENOLONE FOR THE PREPARATION OF A DRUG FOR TREATING A TRAUMATIC BRAIN INJURY” (priority 2004, published 2014).
